From patent US7833698B2, “Method for determining the response to cancer therapy” (Ventana Medical Systems, Inc., priority 2000, dated 2010)

What was measured:
Assay type in all cases: cell-based, human
MCF7 cells [1] = assay: SA-β-Gal staining of drug-treated MCF7 cells; settings: treated 2-3 days with 50 nM doxorubicin or Taxol, stained 10-11 days after release from the drug
Procedure: Cells were washed in PBS, fixed for 3-5 minutes at room temperature in 2% formaldehyde and 0.2% glutaraldehyde (or in 3% formaldehyde alone), washed, and incubated at 37° C. in fresh senescence-associated β-Gal (SA-β-Gal) staining solution (1 mg/ml 5-bromo-4-chloro-3-indolyl β-D-galactoside (X-Gal), 20 mg/ml dimethylformamide; 40 mM citric acid/sodium phosphate, pH 6.0; 5 mM potassium ferrocyanide; 5 mM potassium ferricyanide; 150 mM NaCl; 2 mM MgCl2. Staining was evident following 2-4 hours of incubation and maximal staining was reached after in 12-16 hours. To detect lysosomal β-Gal, the staining solution was prepared with citric acid/sodium phosphate at pH 4.0 (Baselga et al., 1999, Proceedings of AACR NCI EORTC International Conference, Abstract 98).
Red and green filters are suitable for practice of the invention. For SA-β-Gal, a green filter (500 nm) is used to determine the total cytoplasmic area stained with red eosin and compared with the blue area stained for SA-β-Gal (600 nm) as determined using a red filter. […] It is recognized that there are various other staining or optical enhancement methods and filtering methods which can be used to optically enhance one particular area or feature over another cell feature (such as Fast green and eosin).
Cellular changes are induced by treatment with moderate doses of doxorubicin and Taxol in breast tumor-derived human cell lines. […]

MCF7 cells [2] = assay: Flow cytometric analysis of drug-treated MCF7 cells; settings: 50 nM, 2-3 days
Procedure: Cellular changes are induced by treatment with moderate doses of doxorubicin and Taxol in breast tumor-derived human cell lines. MCF7 cells were treated for 2-3 days with 50 nM doxorubicin or Taxol (doses that induce growth inhibition and cellular death as measured by flow cytometry; as described by, e.g., Dolbeare et al., 1983, Proc. Natl. Acad. Sci. U.S.A. 80:5573-77) and then were stained for SA-β-Gal expression 10-11 days after release from the drug.

MCF7 cells [3] = assay: p53 and p21CIPI/WAF1 immunostaining with image analysis in MCF7 cells; settings: MCF7 treated for 3 days with doxorubicin
Text: The expression of proteins associated with senescence or apoptosis are quantitated by image analysis using a suitable primary antibody (such as Ab-2 for p53, or Ab-1 for WAF1, HSP60, or caspase 3), secondary antibody (such as rabbit anti-mouse IgG), and tertiary ABC complex.
Tertiary ABC complexes are visualized by treating the sections with diaminobenizidine (DAB) stain under appropriate conditions. In a second step, the tissue is counterstained with another optical enhancement factor, preferably ethyl green. The resulting preparation has green nuclei with varying degrees of brown diaminobenzidine (DAB) precipitate localized to the nuclei (and indicating the level of expression of p53, p21, p16, WAF1, HSP60, or caspase-3 protein). […] Spectral studies have shown that the ethyl green stain offers good spectral separation from the DAB precipitate of the immunoperoxidase technique such that different features of the image can be readily separated by filtering at two different wavelengths. […]
MCF7 cells were treated for 3 days with doxorubicin and then stained for p53 and p21^CIPI/WAF1 expression. Cells were cultured, stained, and analyzed as described above for SA-β-Gal using appropriate antibodies.

| Compound | Percentage of Cells Expressing SA-β-Gal (MCF7 cells [1]) [%] | Cellular outcome in flow cytometry histogram / SA-β-Gal+ morphology (MCF7 cells [2]) | Cells stained for p21CIPI/WAF1 (% Cells) (MCF7 cells [3]) | Cells stained for p53 (% Cells) (MCF7 cells [3]) |
| --- | --- | --- | --- | --- |
| COc1cccc2c1C(=O)c1c(O)c3c(c(O)c1C2=O)C[C@@](O)(C(=O)CO)C[C@@H]3O[C@H]1C[C@H](N)[C@H](O)[C@H](C)O1 [Doxorubicin, doxorubicin] | 24 | resulted in senescence and blocks at G1, G2, and G2M | 50.81 ± 6 | 23.93 ± 7 |
| CC(=O)O[C@H]1C(=O)[C@@]2(C)[C@H]([C@H](OC(=O)c3ccccc3)[C@]3(O)C[C@H](OC(=O)[C@H](O)[C@@H](NC(=O)c4ccccc4)c4ccccc4)C(C)=C1C3(C)C)[C@]1(OC(C)=O)CO[C@@H]1C[C@@H]2O [Taxol] | 13 | apoptosis is evident by the hypodiploid peak |  |  |
